Data: patent US12383579B2, “Materials and methods of using an inhibitor of plasminogen activation to treat anastomotic leak” (THE UNIVERSITY OF CHICAGO, priority 2018, dated 2025)

Key:
[1] = tested on: type IV collagen degradation by V583; experiment: Type IV collagen degradation by E. faecalis V583 with PLG and uPA; type: biochemical, Enterococcus faecalis
Procedure: Collagen degradation. Assays were performed per the manufacturer's instructions as previously described with slight modifications (51′). Bacteria were grown overnight in TY. Optical density was normalized to 0.1 through dilution. […] Total reaction volume was 200 L. The incubation proceeded at 37° C. for 5 hours to allow for bacterial attachment to collagen and PLG binding. uPA was added and the incubation proceeded for an additional hour. Change in fluorescence over time at 480/520 nm was determined kinetically over the initial 30 minutes of the reaction.

[2] = tested on: RAW macrophages stimulated by V583; experiment: Gelatin degradation by V583-stimulated RAW macrophages; type: cell-based, murine; settings: 10 mM TXA

In the case of `NC[C@H]1CC[C@H](C(=O)O)CC1` [TXA, tranexamic acid], the “type IV collagen degradation by V583 with PLG and uPA” value ([1]; V583, PLG, uPA and TXA) is reported as “concentration-dependent inhibition”, the “reduction of bacterial collagen degradation” value ([1]; same concentration levels as for PLG activation (FIG. 23)) is reported as “over 80%” and the “gelatin degradation in V583-stimulated macrophages” value ([2]; PLG, uPA, 6 hours, no added pro-MMP9) is reported as “significantly inhibited gelatin degradation”. The “gelatin degradation in V583-stimulated macrophages” value ([2]; with added pro-MMP9) was “significantly diminished”.
